Data taken from patent publication US10953027B2, “Active agents and methods of their use for the treatment of metabolic disorders and nonalcoholic fatty liver disease” (Flagship Pioneering Innovations V, Inc., priority 2018, dated 2021).

What was measured:
Assay type in all cases: in vitro ADME
[1] = Assay 1. Stability in Simulated Gastric Fluid (SGF); settings: 1 μM, 37° C., SGF pH 1.6 with pepsin
Summary of the method: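 Acylated compounds at a final 1 μM (diluted from 1 mM DMSO stock) were incubated at 37 °C in SGF of pH 1.6 NaCl buffer with FaSSIF powder and 0.1 mg/mL pepsin. Aliquots were quenched with acetonitrile at T0 and regular intervals, and degradation rates were determined by LC/MS.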

[2] = Assay 2. Stability in Simulated Intestinal Fluid (SIF); settings: 1 μM, 37° C., SIF pH 6.7 with pancreatin
Summary of the method: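 Acylated compounds at 1 μM (from 1 mM DMSO stock) in fresh SIF: FaSSIF with pancreatin in pH 6.7 phosphate buffer, agitated at 37 °C. Aliquots from T0 onward quenched with 1 volume acetonitrile; LC/MS gives degradation rates.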

[3] = Assay 3. Fecal Incubation Stability; settings: 1 or 10 μM, human fecal slurry, anaerobic

## CCC(=O)O[C@H]1[C@H](OC(=O)CCc2c[nH]c3ccccc23)OC[C@@H](OC(=O)CC)[C@H]1OC(=O)CC [Compound 130, (2S,3R,4R,5R)-3,4,5-tris(propanoyloxy)oxan-2-yl 3-(1H-indol-3-yl)propanoate]
[1]
  Assay 1 (SGF) (% Remaining @ 1 hours): B (B: 25-75% of the tested compound remaining)
[2]
  Assay 2 (SIF) (% @ Remaining 4 hours): A (A: <25% of the tested compound remaining)
[3]
  Assay 3 (% Remaining at 24 h): A (A: <25% of the tested compound remaining)

## CCC(=O)O[C@H]1OC[C@@H](OC(=O)CC)[C@@H](OC(=O)CC)[C@H]1OC(=O)CC [Compound 133, (2R,3R,4R,5R)-3,4,5-tris(propanoyloxy)oxan-2-yl Propanoate]
[1]
  Assay 1 (SGF) (% Remaining @ 1 hours): C (C: >75% of the tested compound remaining)
[2]
  Assay 2 (SIF) (% @ Remaining 4 hours): A (A: <25% of the tested compound remaining)
[3]
  Assay 3 (% Remaining at 24 h): A (A: <25% of the tested compound remaining)

## CCC(=O)O[C@@H]1[C@@H](OC(=O)CC)[C@H](C)O[C@@H](OC(=O)/C=C/c2c[nH]c3ccccc23)[C@@H]1OC(=O)CC [Compound 134, (2S,3R,4R,5S,6S)-6-methyl-3,4,5-tris(propanoyloxy)oxan-2-yl (2E)-3-(1H-indol-3-yl)prop-2-enoate]
[1]
  Assay 1 (SGF) (% Remaining @ 1 hours): C (C: >75% of the tested compound remaining)
[2]
  Assay 2 (SIF) (% @ Remaining 4 hours): B (B: 25-75% of the tested compound remaining)
[3]
  Assay 3 (% Remaining at 24 h): A (A: <25% of the tested compound remaining)

## CCC(=O)O[C@@H]1[C@@H](OC(=O)CC)[C@H](OC(=O)Cc2c[nH]c3ccccc23)OC[C@@H]1OC(=O)CC [Compound 135, (3S,4S,5R,6S)-6-{[2-(1H-indol-3-yl)acetyl]oxy}-4,5-bis(propanoyloxy)oxan-3-yl Propanoate]
[1]
  Assay 1 (SGF) (% Remaining @ 1 hours): C (C: >75% of the tested compound remaining)
[2]
  Assay 2 (SIF) (% @ Remaining 4 hours): A (A: <25% of the tested compound remaining)
[3]
  Assay 3 (% Remaining at 24 h): A (A: <25% of the tested compound remaining)

## CCC(=O)O[C@@H]1OC[C@@H](OC(=O)CC)[C@@H](OC(=O)CC)[C@H]1OC(=O)CC [Compound 136, (2S,3R,4R,5R)-3,4,5-tris(propanoyloxy)oxan-2-yl Propanoate]
[1]
  Assay 1 (SGF) (% Remaining @ 1 hours): C (C: >75% of the tested compound remaining)
[2]
  Assay 2 (SIF) (% @ Remaining 4 hours): A (A: <25% of the tested compound remaining)
[3]
  Assay 3 (% Remaining at 24 h): A (A: <25% of the tested compound remaining)

## CCC(=O)O[C@@H]1[C@H](OC(=O)CC)COC(O)[C@@H]1OC(=O)CC (stereo partly drawn) [Compound 137, (3R,4R,5R)-2-hydroxy-4,5-bis(propanoyloxy)oxan-3-yl Propanoate]
[1]
  Assay 1 (SGF) (% Remaining @ 1 hours): C (C: >75% of the tested compound remaining)
[2]
  Assay 2 (SIF) (% @ Remaining 4 hours): B (B: 25-75% of the tested compound remaining)
[3]
  Assay 3 (% Remaining at 24 h): B (B: 25-75% of the tested compound remaining)

## CCC(=O)O[C@H]1[C@H](OC(=O)Cc2c[nH]c3ccccc23)OC[C@@H](OC(=O)CC)[C@H]1OC(=O)CC [Compound 138, (2S,3R,4R,5R)-2-{[2-(1H-indol-3-yl)acetyl]oxy}-4,5-bis(propanoyloxy)oxan-3-yl Propanoate]
[1]
  Assay 1 (SGF) (% Remaining @ 1 hours): C (C: >75% of the tested compound remaining)
[2]
  Assay 2 (SIF) (% @ Remaining 4 hours): A (A: <25% of the tested compound remaining)
[3]
  Assay 3 (% Remaining at 24 h): A (A: <25% of the tested compound remaining)

## CCC(=O)O[C@@H]1[C@@H](OC(=O)CC)[C@H](C)O[C@H](OC(=O)/C=C/c2c[nH]c3ccccc23)[C@@H]1OC(=O)CC [Compound 139, (2R,3R,4R,5S,6S)-6-methyl-3,4,5-tris(propanoyloxy)oxan-2-yl (2E)-3-(1H-indol-3-yl)prop-2-enoate]
[1]
  Assay 1 (SGF) (% Remaining @ 1 hours): B (B: 25-75% of the tested compound remaining)
[2]
  Assay 2 (SIF) (% @ Remaining 4 hours): A (A: <25% of the tested compound remaining)
[3]
  Assay 3 (% Remaining at 24 h): B (B: 25-75% of the tested compound remaining)

## CCC(=O)O[C@@H]1[C@@H](OC(=O)CC)[C@@H](OC(=O)Cc2c[nH]c3ccccc23)OC[C@@H]1OC(=O)CC [Compound 140, (3S,4S,5R,6R)-6-{[2-(1H-indol-3-yl)acetyl]oxy}-4,5-bis(propanoyloxy)oxan-3-yl Propanoate]
[1]
  Assay 1 (SGF) (% Remaining @ 1 hours): C (C: >75% of the tested compound remaining)
[2]
  Assay 2 (SIF) (% @ Remaining 4 hours): A (A: <25% of the tested compound remaining)
[3]
  Assay 3 (% Remaining at 24 h): A (A: <25% of the tested compound remaining)

## CCC(=O)OC[C@H]1O[C@H](OC(=O)CCc2c[nH]c3ccccc23)[C@H](OC(=O)CC)[C@@H](OC(=O)CC)[C@@H]1OC(=O)CC [Compound 141, [(2R,3R,4S,5R,6R)-6-{[3-(1H-indol-3-yl)propanoyl]oxy}-3,4,5-tris(propanoyloxy)oxan-2-yl]methyl Propanoate]
[1]
  Assay 1 (SGF) (% Remaining @ 1 hours): C (C: >75% of the tested compound remaining)
[2]
  Assay 2 (SIF) (% @ Remaining 4 hours): A (A: <25% of the tested compound remaining)
[3]
  Assay 3 (% Remaining at 24 h): A (A: <25% of the tested compound remaining)

## CCC(=O)OC[C@H]1O[C@@H](OC(=O)Cc2c[nH]c3ccccc23)[C@H](OC(=O)CC)[C@@H](OC(=O)CC)[C@@H]1OC(=O)CC [Compound 143, [(2R,3R,4S,5R,6S)-6-{[2-(1H-indol-3-yl)acetyl]oxy}-3,4,5-tris(propanoyloxy)oxan-2-yl]methyl Propanoate]
[1]
  Assay 1 (SGF) (% Remaining @ 1 hours): C (C: >75% of the tested compound remaining)
[2]
  Assay 2 (SIF) (% @ Remaining 4 hours): A (A: <25% of the tested compound remaining)
[3]
  Assay 3 (% Remaining at 24 h): A (A: <25% of the tested compound remaining)

## CCC(=O)OC[C@H]1O[C@@H](OC(=O)CCc2c[nH]c3ccccc23)[C@H](OC(=O)CC)[C@@H](OC(=O)CC)[C@@H]1OC(=O)CC [Compound 144, [(2R,3R,4S,5R,6S)-6-{[3-(1H-indol-3-yl)propanoyl]oxy}-3,4,5-tris(propanoyloxy)oxan-2-yl]methyl Propanoate]
[1]
  Assay 1 (SGF) (% Remaining @ 1 hours): C (C: >75% of the tested compound remaining)
[2]
  Assay 2 (SIF) (% @ Remaining 4 hours): A (A: <25% of the tested compound remaining)
[3]
  Assay 3 (% Remaining at 24 h): A (A: <25% of the tested compound remaining)

## CCC(=O)O[C@@H]1[C@@H](OC(=O)CC)[C@@H](OC(=O)CC)C(O)O[C@H]1C (stereo partly drawn) [Compound 145, (3R,4R,5S,6S)-2-hydroxy-6-methyl-4,5-bis(propanoyloxy)oxan-3-yl Propanoate]
[1]
  Assay 1 (SGF) (% Remaining @ 1 hours): C (C: >75% of the tested compound remaining)
[2]
  Assay 2 (SIF) (% @ Remaining 4 hours): A (A: <25% of the tested compound remaining)
[3]
  Assay 3 (% Remaining at 24 h): C (C: >75% of the tested compound remaining)

## CCC(=O)OC[C@H]1O[C@H](OC(=O)Cc2c[nH]c3ccccc23)[C@H](OC(=O)CC)[C@@H](OC(=O)CC)[C@@H]1OC(=O)CC [Compound 146, [(2R,3R,4S,5R,6R)-6-{[2-(1H-indol-3-yl)acetyl]oxy}-3,4,5-tris(propanoyloxy)oxan-2-yl]methyl Propanoate]
[1]
  Assay 1 (SGF) (% Remaining @ 1 hours): C (C: >75% of the tested compound remaining)
[2]
  Assay 2 (SIF) (% @ Remaining 4 hours): A (A: <25% of the tested compound remaining)
[3]
  Assay 3 (% Remaining at 24 h): A (A: <25% of the tested compound remaining)

## CCC(=O)O[C@@H]1[C@@H](OC(=O)CC)[C@H](C)O[C@@H](OC(=O)Cc2c[nH]c3ccccc23)[C@@H]1OC(=O)CC [Compound 147, (2S,3R,4R,5S,6S)-2-{[2-(1H-indol-3-yl)acetyl]oxy}-6-methyl-4,5-bis(propanoyloxy)oxan-3-yl Propanoate]
[1]
  Assay 1 (SGF) (% Remaining @ 1 hours): C (C: >75% of the tested compound remaining)
[2]
  Assay 2 (SIF) (% @ Remaining 4 hours): A (A: <25% of the tested compound remaining)
[3]
  Assay 3 (% Remaining at 24 h): A (A: <25% of the tested compound remaining)

## CCC(=O)O[C@@H]1[C@@H](OC(=O)CC)[C@@H](OC(=O)Cc2c[nH]c3ccccc23)OC[C@H]1OC(=O)CC [Compound 149, (2R,3R,4S,5R)-2-{[2-(1H-indol-3-yl)acetyl]oxy}-4,5-bis(propanoyloxy)oxan-3-yl Propanoate]
[1]
  Assay 1 (SGF) (% Remaining @ 1 hours): C (C: >75% of the tested compound remaining)
[2]
  Assay 2 (SIF) (% @ Remaining 4 hours): A (A: <25% of the tested compound remaining)
[3]
  Assay 3 (% Remaining at 24 h): A (A: <25% of the tested compound remaining)

## CCC(=O)O[C@@H]1[C@@H](OC(=O)CC)[C@@H](OC(=O)CCc2c[nH]c3ccccc23)OC[C@@H]1OC(=O)CC [Compound 158, (2R,3R,4S,5S)-3,4,5-tris(propanoyloxy)oxan-2-yl 3-(1H-indol-3-yl)propanoate]
[1]
  Assay 1 (SGF) (% Remaining @ 1 hours): C (C: >75% of the tested compound remaining)
[2]
  Assay 2 (SIF) (% @ Remaining 4 hours): A (A: <25% of the tested compound remaining)
[3]
  Assay 3 (% Remaining at 24 h): A (A: <25% of the tested compound remaining)

## O=C(Cc1c[nH]c2ccccc12)O[C@H]1OC[C@H](OC(=O)Cc2c[nH]c3ccccc23)[C@H](OC(=O)Cc2c[nH]c3ccccc23)[C@H]1OC(=O)Cc1c[nH]c2ccccc12 [Compound 180, (2R,3R,4S,5S)-3,4,5-tris({[2-(1H-indol-3-yl)acetyl]oxy})oxan-2-yl 2-(1H-indol-3-yl)acetate]
[1]
  Assay 1 (SGF) (% Remaining @ 1 hours): B (B: 25-75% of the tested compound remaining)
[2]
  Assay 2 (SIF) (% @ Remaining 4 hours): A (A: <25% of the tested compound remaining)
[3]
  Assay 3 (% Remaining at 24 h): A (A: <25% of the tested compound remaining)

## CO[C@H]1O[C@H](COC(C)=O)[C@@H](OC(C)=O)[C@H](OC(C)=O)[C@@H]1OC(C)=O [Compound 193, (2R,3R,4S,5S,6S)-2-(acetoxymethyl)-6-methoxytetrahydro-2H-pyran-3,4,5-triyl Triacetate]
[1]
  Assay 1 (SGF) (% Remaining @ 1 hours): C (C: >75% of the tested compound remaining)
[2]
  Assay 2 (SIF) (% @ Remaining 4 hours): C (C: >75% of the tested compound remaining)
[3]
  Assay 3 (% Remaining at 24 h): B (B: 25-75% of the tested compound remaining)
